From ChEMBL document CHEMBL4732252, “Generating Selective Leads for Mer Kinase Inhibitors-Example of a Comprehensive Lead-Generation Strategy” (J Med Chem, 2021)
Values after ≈ are worked out from the molar mass of the structure shown.

Assays:
[1] = target: T1, Tyrosine-protein kinase receptor TYRO3 (Homo sapiens, UniProt Q06418); assay: Inhibition of GST-tagged Tyro3 (unknown origin) (453 to 890 residues) using Axltide (KKSRGDYMTMQIG-acid) peptide as substrate preincubated for 30 mins followed by substrate and ATP addition at Km concentration measured after 180 mins by RapidFire LC-MS analysis
T1 sequence (Q06418 whole entry): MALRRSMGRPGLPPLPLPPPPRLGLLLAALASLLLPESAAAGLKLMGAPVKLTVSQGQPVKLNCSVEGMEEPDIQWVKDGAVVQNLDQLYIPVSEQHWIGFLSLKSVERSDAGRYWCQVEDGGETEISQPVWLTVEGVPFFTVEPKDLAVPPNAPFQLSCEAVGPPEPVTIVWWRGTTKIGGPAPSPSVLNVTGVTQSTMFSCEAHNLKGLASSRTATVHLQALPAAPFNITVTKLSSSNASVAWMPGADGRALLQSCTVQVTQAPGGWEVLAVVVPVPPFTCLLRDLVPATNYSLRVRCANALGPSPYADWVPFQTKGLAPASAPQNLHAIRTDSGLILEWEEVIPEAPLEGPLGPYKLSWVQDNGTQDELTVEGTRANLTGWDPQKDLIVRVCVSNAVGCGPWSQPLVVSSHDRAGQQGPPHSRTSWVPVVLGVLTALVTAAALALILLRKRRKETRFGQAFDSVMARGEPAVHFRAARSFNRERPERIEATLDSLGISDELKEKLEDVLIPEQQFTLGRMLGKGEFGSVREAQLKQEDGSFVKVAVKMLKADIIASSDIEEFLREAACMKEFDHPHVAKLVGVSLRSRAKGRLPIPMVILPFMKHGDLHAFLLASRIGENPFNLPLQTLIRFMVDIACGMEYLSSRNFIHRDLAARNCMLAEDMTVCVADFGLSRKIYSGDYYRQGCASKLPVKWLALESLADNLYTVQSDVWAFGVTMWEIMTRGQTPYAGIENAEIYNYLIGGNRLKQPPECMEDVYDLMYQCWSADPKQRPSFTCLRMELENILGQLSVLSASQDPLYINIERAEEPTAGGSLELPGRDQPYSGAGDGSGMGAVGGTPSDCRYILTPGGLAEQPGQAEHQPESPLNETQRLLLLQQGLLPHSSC

[2] = target: T2, Receptor-type tyrosine-protein kinase FLT3 (Homo sapiens, UniProt P36888); assay: Inhibition of His6/TEV fused-GST-tagged Flt3 (unknown origin) (H564 to S993 residues) using Axltide (CKKSRGDYMTMQJ-acid) peptide as substrate preincubated for 30 mins followed by substrate and ATP addition at Km concentration measured after 75 mins by RapidFire LC-MS analysis
T2 sequence (P36888 whole entry): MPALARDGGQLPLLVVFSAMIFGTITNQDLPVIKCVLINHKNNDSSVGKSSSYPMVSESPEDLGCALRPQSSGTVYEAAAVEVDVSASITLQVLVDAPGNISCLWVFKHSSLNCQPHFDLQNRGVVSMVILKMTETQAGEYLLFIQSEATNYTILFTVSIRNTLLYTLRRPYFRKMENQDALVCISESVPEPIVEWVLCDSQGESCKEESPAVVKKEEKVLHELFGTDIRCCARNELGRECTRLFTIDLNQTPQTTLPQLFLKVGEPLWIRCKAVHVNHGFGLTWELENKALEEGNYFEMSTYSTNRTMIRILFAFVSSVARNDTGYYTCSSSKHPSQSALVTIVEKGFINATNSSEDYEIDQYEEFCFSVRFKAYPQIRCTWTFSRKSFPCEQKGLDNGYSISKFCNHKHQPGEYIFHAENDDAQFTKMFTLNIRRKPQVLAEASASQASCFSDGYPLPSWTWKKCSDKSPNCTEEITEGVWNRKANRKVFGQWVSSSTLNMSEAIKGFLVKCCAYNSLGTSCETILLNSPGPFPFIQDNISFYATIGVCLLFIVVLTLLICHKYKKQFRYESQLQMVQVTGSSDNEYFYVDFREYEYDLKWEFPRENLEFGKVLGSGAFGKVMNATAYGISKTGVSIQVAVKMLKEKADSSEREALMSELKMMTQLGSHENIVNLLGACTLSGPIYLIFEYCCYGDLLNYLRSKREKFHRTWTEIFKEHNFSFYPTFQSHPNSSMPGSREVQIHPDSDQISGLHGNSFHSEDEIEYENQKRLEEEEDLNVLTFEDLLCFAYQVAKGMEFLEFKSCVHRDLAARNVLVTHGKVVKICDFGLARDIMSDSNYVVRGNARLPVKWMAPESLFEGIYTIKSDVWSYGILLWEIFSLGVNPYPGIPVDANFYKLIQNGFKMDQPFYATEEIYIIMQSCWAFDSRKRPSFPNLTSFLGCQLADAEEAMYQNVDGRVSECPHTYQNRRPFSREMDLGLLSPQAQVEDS

[3] = Intrinsic clearance in rat hepatocytes assessed per 10^6 cells; assay type: ADME, cell-based, Hepatocyte; settings: read-out: CLH
[4] = Intrinsic clearance in human liver microsomes; assay type: ADME, Microsome; settings: read-out: CLH
[5] = Distribution coefficient, logD of compound at pH 7.4; assay type: physicochemical; settings: octanol/water
[6] = Aqueous solubility of the compound; assay type: physicochemical

| SMILES | IC50 [1] | IC50 [2] | hepatocyte CLint [3] | microsomal CLint [4] | logD [5] | solubility [6] |
| --- | --- | --- | --- | --- | --- | --- |
| CCn1c(-c2nnc(N(C)Cc3ccc4nccn4c3)o2)nc2ccccc21 | 39.8 µM | 6.31 µM | 22 µL/min/1e6 cells | 55 µL/min/mg | 3 | 120 µM (≈ 44.8 µg/mL) |
| CNC(=O)c1sc(N2CC3CC2(CNC(=O)c2c[nH]c4ncc(C(F)(F)F)cc24)C3)nc1C(F)(F)F | > 100 µM | > 100 µM | 78 µL/min/1e6 cells | 130 µL/min/mg | 4.2 | < 1.6 µM |
| O=S(=O)(c1ccc(Nc2ncc(N3CCOCC3)c(Nc3ccccc3)n2)cc1)N1CCCCC1 | 6.31 µM | > 39.8 µM | 88 µL/min/1e6 cells | 190 µL/min/mg | 4.5 | 0.6 µM (≈ 0.297 µg/mL) |
| CN(Cc1ccc2nccn2c1)c1nnc(-c2ccc(-c3ccccc3Cl)cc2)o1 | 10 µM | 15.8 µM | 21 µL/min/1e6 cells | 46 µL/min/mg | 4.8 | 1.1 µM (≈ 0.457 µg/mL) |
| CN(Cc1ccc2nccn2c1)c1nnc(-c2ncc(C(F)(F)F)cc2Cl)o1 | > 100 µM | > 100 µM | 6 µL/min/1e6 cells | 11 µL/min/mg | 2.6 | 301 µM (≈ 123 µg/mL) |
| CN(Cc1ccc2nccn2c1)c1nnc(-c2ccc(OC3CCCC3)cc2)o1 | 79.4 µM | 20 µM | 52 µL/min/1e6 cells | 150 µL/min/mg | 4.1 | 33 µM (≈ 12.9 µg/mL) |
| CN(Cc1ccc2nccn2c1)c1nnc(-c2ccc(-c3ccccc3Cl)nc2)o1 | 20 µM | 15.8 µM | 16 µL/min/1e6 cells | 92 µL/min/mg | 3.3 | 10 µM (≈ 4.17 µg/mL) |
| CN(Cc1ccc2c(c1)CCCO2)c1nnc(-c2ccc(-c3ccccc3Cl)cc2)o1 | > 100 µM | > 100 µM | 19 µL/min/1e6 cells | 19 µL/min/mg | > 5.6 | 0.1 µM (≈ 0.0432 µg/mL) |
| Cc1cc(N(C)C)ccc1-c1nnc(N(C)Cc2ccc3nccn3c2)o1 | > 100 µM | 31.6 µM | 44 µL/min/1e6 cells | 55 µL/min/mg | 3.2 | 23 µM (≈ 8.34 µg/mL) |

Compounds with a lower IC50 [1], results first:

| IC50 [1] | IC50 [2] | hepatocyte CLint [3] | microsomal CLint [4] | logD [5] | solubility [6] | SMILES |
| --- | --- | --- | --- | --- | --- | --- |
| 0.251 µM | 10 µM | < 2.4 µL/min/1e6 cells | < 3 µL/min/mg | 3.2 | 400 µM (≈ 190 µg/mL) | C[C@@H]1CN(c2cnc(Nc3cc(F)c(OCC4CC4)c(F)c3)nc2NC2CCOCC2)CCN1 |
| 3.16 µM | > 50.1 µM | 160 µL/min/1e6 cells | > 270 µL/min/mg | 4.4 | 4 µM (≈ 1.44 µg/mL) | CNc1nc(OCC2CCC2)nc2c1ncn2Cc1c(F)cccc1F |
| 2 µM | 5.01 µM | 33 µL/min/1e6 cells | 200 µL/min/mg | 3.1 | < 1.6 µM | CNC(=O)c1sc(N2CC3CC2(CNC(=O)c2c[nH]c4ncccc24)C3)nc1C(F)(F)F |
| 0.0316 µM | > 100 µM | 260 µL/min/1e6 cells | > 300 µL/min/mg | 4.2 | < 0.2 µM | CNC(=O)C[C@@H](NC(=O)[C@@H](CCc1ccccc1)NC(=O)c1c(C)noc1-c1snnc1C)c1ccc(C(F)(F)F)cc1 |
| 2 µM | > 50.1 µM | 3 µL/min/1e6 cells | < 3 µL/min/mg | 1.4 | 260 µM (≈ 117 µg/mL) | COc1cc2ncnc(Nc3cnc(OCCC4CC4)nc3)c2cc1OCC1CCNCC1 |
| 0.631 µM | 1.58 µM | 120 µL/min/1e6 cells | > 300 µL/min/mg | 4 | 2 µM (≈ 0.998 µg/mL) | CNC(=O)c1sc(N2CC3CC2(CNC(=O)c2c[nH]c4ncc(Cl)cc24)C3)nc1C(F)(F)F |
| 1 µM | 1.58 µM | 92 µL/min/1e6 cells | > 270 µL/min/mg | 3.5 | < 1.6 µM | CNC(=O)c1sc(N2CC3CC2(CNC(=O)c2c[nH]c4ncc(C)cc24)C3)nc1C(F)(F)F |
| 0.01 µM | 0.0631 µM | 210 µL/min/1e6 cells | 16 µL/min/mg | > 5 | 0.01 µM (≈ 0.00552 µg/mL) | Cc1c(C(=O)Nc2ccc(Oc3ccnc4[nH]cc(-c5ccccc5)c34)c(F)c2)c(=O)n(-c2ccc(F)cc2)n1C |
